Laboratory results taken from ChEMBL document CHEMBL4138151, “Discovery of a head-to-tail cyclic peptide as the Keap1-Nrf2 protein-protein interaction inhibitor with high cell potency” (Eur J Med Chem, 2018).
The source made the active and inactive calls. No cut-off for these calls is given here.

Columns and labels:
[1] = target: T1, Kelch-like ECH-associated protein 1/Nuclear factor erythroid 2-related factor 2 (Mus musculus) (UniProt Q60795+Q9Z2X8); assay: Inhibition of Keap1/Nrf2 protein-protein interaction in mouse RAW264.7 cells assessed as upregulation of GCLM mRNA expression at 1 uM after 10 hrs by quantitative real-time-PCR analysis; type: cell-based
T1 sequence (Q60795 whole entry, looked up): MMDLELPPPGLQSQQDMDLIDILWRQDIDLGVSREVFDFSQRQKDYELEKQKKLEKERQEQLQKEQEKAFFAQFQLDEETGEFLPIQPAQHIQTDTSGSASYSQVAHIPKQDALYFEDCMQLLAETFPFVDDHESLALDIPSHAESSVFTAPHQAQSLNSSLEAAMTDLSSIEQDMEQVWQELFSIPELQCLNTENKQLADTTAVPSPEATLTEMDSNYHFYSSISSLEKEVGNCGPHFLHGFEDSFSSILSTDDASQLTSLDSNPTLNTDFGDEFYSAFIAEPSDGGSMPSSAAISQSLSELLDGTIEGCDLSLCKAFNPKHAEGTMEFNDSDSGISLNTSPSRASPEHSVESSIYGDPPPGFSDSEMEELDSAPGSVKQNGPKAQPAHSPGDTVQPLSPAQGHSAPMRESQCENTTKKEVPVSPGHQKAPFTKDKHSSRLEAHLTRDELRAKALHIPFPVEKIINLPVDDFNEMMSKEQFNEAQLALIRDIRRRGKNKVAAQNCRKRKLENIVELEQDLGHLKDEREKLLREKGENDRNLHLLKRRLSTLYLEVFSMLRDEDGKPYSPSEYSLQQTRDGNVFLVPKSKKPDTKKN
T1 sequence (Q9Z2X8 whole entry, looked up): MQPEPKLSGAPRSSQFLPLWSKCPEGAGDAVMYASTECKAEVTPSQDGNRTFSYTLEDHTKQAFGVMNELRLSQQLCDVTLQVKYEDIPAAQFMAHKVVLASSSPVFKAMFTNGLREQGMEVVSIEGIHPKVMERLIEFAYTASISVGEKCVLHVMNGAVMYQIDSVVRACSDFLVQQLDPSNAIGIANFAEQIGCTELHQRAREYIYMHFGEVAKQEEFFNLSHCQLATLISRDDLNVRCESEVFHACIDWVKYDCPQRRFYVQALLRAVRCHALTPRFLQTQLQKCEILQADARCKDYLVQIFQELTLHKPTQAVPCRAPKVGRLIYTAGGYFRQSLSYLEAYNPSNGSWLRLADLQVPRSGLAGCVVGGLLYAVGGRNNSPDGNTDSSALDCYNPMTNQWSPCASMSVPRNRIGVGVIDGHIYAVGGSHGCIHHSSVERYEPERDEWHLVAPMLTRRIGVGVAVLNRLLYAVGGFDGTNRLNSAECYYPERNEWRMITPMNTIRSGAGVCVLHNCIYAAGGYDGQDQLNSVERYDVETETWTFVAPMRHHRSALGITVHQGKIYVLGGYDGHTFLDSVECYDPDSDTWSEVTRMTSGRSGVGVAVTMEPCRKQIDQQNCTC

RAW264.7 [2] = conditions: Mus musculus, up to 10 µM
Description: Anti-inflammatory activity in mouse RAW264.7 cells assessed as inhibition of LPS-induced IL-18 production up to 10 uM pretreated for 10 hrs followed by LPS stimulation for 12 hrs by ELISA

[3] = target: T1, Kelch-like ECH-associated protein 1/Nuclear factor erythroid 2-related factor 2 (Mus musculus); assay: Inhibition of Keap1/Nrf2 protein-protein interaction in mouse RAW264.7 cells assessed as upregulation of NQO1 mRNA expression at 1 uM after 10 hrs by quantitative real-time-PCR analysis; type: cell-based
RAW264.7 [4] = assay: Inhibition of LPS-induced increase in ROS levels in mouse RAW264.7 cells up to 10 uM preincubated for 10 hrs followed by LPS stimulation for 12 hrs by cH2DCF-DA dye-based fluorescent microscopy; type: functional, cell-based
RAW264.7 [5] = assay: Upregulation of GSH-Px protein expression in mouse RAW264.7 cells at 1 uM after 8 hrs by Western blot analysis; type: functional, cell-based
[6] = target: T1, Kelch-like ECH-associated protein 1/Nuclear factor erythroid 2-related factor 2 (Mus musculus); assay: Inhibition of Keap1/Nrf2 protein-protein interaction in mouse RAW264.7 cells assessed as increase in GCLM levels up to 10 uM after 8 hrs by Western blot analysis; type: cell-based
RAW264.7 [7] = assay: Upregulation of SOD protein expression in mouse RAW264.7 cells at 1 uM after 8 hrs by Western blot analysis; type: functional, cell-based
RAW264.7 [8] = assay: Anti-inflammatory activity in mouse RAW264.7 cells assessed as restoration of LPS-induced decrease in SOD activity at 10 uM; type: functional, cell-based
[9] = target: T1, Kelch-like ECH-associated protein 1/Nuclear factor erythroid 2-related factor 2 (Mus musculus); assay: Inhibition of Keap1/Nrf2 protein-protein interaction in mouse RAW264.7 cells assessed as increase in NQO1 levels up to 10 uM after 8 hrs by Western blot analysis; type: cell-based
RAW264.7 [10] = assay: Anti-inflammatory activity in mouse RAW264.7 cells assessed restoration of LPS-induced decrease in GSH-Px activity at 10 uM; type: functional, cell-based
[11] = target: T1, Kelch-like ECH-associated protein 1/Nuclear factor erythroid 2-related factor 2 (Mus musculus); assay: Inhibition of Keap1/Nrf2 protein-protein interaction in mouse RAW264.7 cells assessed as increase in HO-1 levels up to 10 uM after 8 hrs by Western blot analysis; type: cell-based
RAW264.7 [12] = assay: Anti-inflammatory activity in mouse RAW264.7 cells assessed inhibition of LPS-induced increase in MPO activity at 10 uM; type: functional, cell-based
RAW264.7 [13] = assay: Anti-inflammatory activity in mouse RAW264.7 cells assessed as inhibition of LPS-induced TNFalpha production up to 10 uM pretreated for 10 hrs followed by LPS stimulation for 12 hrs by ELISA; type: functional, cell-based
[14] = target: T1, Kelch-like ECH-associated protein 1/Nuclear factor erythroid 2-related factor 2 (Mus musculus); assay: Inhibition of Keap1/Nrf2 protein-protein interaction in mouse RAW264.7 cells assessed as upregulation of HO1 mRNA expression at 1 uM after 10 hrs by quantitative real-time-PCR analysis; type: cell-based
RAW264.7 [15] = assay: Anti-inflammatory activity in mouse RAW264.7 cells assessed as reduction in LPS-induced NO production by measuring NO level at 10 uM preincubated for 10 hrs followed by LPS stimulation for 12 hrs by Griess assay (reference value: 50 uM); type: functional
RAW264.7 [16] = assay: Anti-inflammatory activity in mouse RAW264.7 cells assessed as inhibition of LPS-induced IL-1beta production up to 10 uM pretreated for 10 hrs followed by LPS stimulation for 12 hrs by ELISA; type: functional, cell-based
[17] = target: T1, Kelch-like ECH-associated protein 1/Nuclear factor erythroid 2-related factor 2 (Mus musculus); assay: Inhibition of Keap1/Nrf2 protein-protein interaction in mouse RAW264.7 cells assessed as upregulation of NQO1 mRNA expression at 0.1 to 10 uM after 10 hrs by quantitative real-time-PCR analysis; type: cell-based
[18] = target: T1, Kelch-like ECH-associated protein 1/Nuclear factor erythroid 2-related factor 2 (Mus musculus); assay: Inhibition of Keap1/Nrf2 protein-protein interaction in mouse RAW264.7 cells assessed as upregulation of GCLM mRNA expression at 0.1 to 10 uM after 10 hrs by quantitative real-time-PCR analysis; type: cell-based
[19] = target: T1, Kelch-like ECH-associated protein 1/Nuclear factor erythroid 2-related factor 2 (Mus musculus); assay: Inhibition of Keap1/Nrf2 protein-protein interaction in mouse RAW264.7 cells assessed as upregulation of HO-1 mRNA expression at 0.1 to 10 uM after 10 hrs by quantitative real-time-PCR analysis; type: cell-based

inhibition [17]	inhibition [18]	inhibition [19]	Compound	inhibition [1]	inhibition (RAW264.7 [2])	inhibition [3]	inhibition (RAW264.7 [4])	Activity (RAW264.7 [5])	inhibition [6]	Activity (RAW264.7 [7])	Activity (RAW264.7 [8])	inhibition [9]	Activity (RAW264.7 [10])	inhibition [11]	inhibition (RAW264.7 [12])	inhibition (RAW264.7 [13])	inhibition [14]	Activity (RAW264.7 [15]) [µM]	inhibition (RAW264.7 [16])
			CC(C)C[C@@H]1NC(=O)[C@H](Cc2ccccc2)NC(=O)[C@H](CCC(=O)O)NC(=O)CNC(=O)[C@H]([C@@H](C)O)NC(=O)[C@H](CCC(=O)O)NC(=O)[C@@H]2CCCN2C(=O)[C@H](CC(=O)O)NC(=O)[C@H](CC(C)C)NC(=O)[C@H](CCC(N)=O)NC(=O)CNC1=O	Active	Active	Active	Active	Active	Active	Active	Active	Active	Active	Active	Active	Active	Active	14	Active
inactive	inactive	inactive	CC(=O)NCC(=O)N[C@@H](CCC(N)=O)C(=O)N[C@@H](CC(C)C)C(=O)N[C@@H](CC(=O)O)C(=O)N1CCC[C@H]1C(=O)N[C@@H](CCC(=O)O)C(=O)N[C@H](C(=O)NCC(=O)N[C@@H](CCC(=O)O)C(=O)N[C@@H](Cc1ccccc1)C(=O)N[C@@H](CC(C)C)C(=O)O)[C@@H](C)O						inactive			inactive		inactive					
